# Results as given in article PMC5469750, “Antibacterial and detoxifying activity of NZ17074 analogues with multi-layers of selective antimicrobial actions against Escherichia coli and Salmonella enteritidis” (Scientific Reports, 2017).
# Where a SMILES comes first, the peptide text is derived from it. Bridges are numbered along the chain shown (N, C = ends).
# Legend:
# P. aeruginosa CICC21630 = type: cell-based, Pseudomonas aeruginosa; settings: CICC21630
# Description: (§1) The antimicrobial activity of peptides was determined by the microbroth dilution method. The bacterial strains were incubated in Mueller-Hinton (MH) medium at 37 °C overnight until the mid-log phase (OD600 nm reading of 0.5). Bacteria were diluted to 1 × 10^5 CFU/ml and added into 96-well plates, followed by the addition of serial dilutions of peptides (from 0.0625 to 128 μg/ml). The plates were incubated at 37 °C for 18–24 h. The MIC value was determined as the lowest peptide concentration at which no bacterial growth was observed. All tests were conducted in triplicate.
# [1] = test system: Candida albicans CGMCC2.2411; type: cell-based; settings: CGMCC2.2411
# S. enteritidis CVCC3377 = type: cell-based, Salmonella enteritidis; settings: CVCC3377
# Description: as §1
# S. aureus ATCC25923 = type: cell-based, Staphylococcus aureus; settings: ATCC25923
# Description: as §1
# [2] = test system: Listeria ivanovii ATCC19119; type: cell-based; settings: ATCC19119
# Description: as §1
# S. pullorum CVCC1789 = type: cell-based; settings: CVCC1789
# Description: as §1
# S. pullorum CVCC1802 = type: cell-based; settings: CVCC1802
# Description: as §1
# [3] = test system: Bacillus subtilis ATCC6633; type: cell-based; settings: ATCC6633
# Description: as §1
# S. suis CVCC606 = type: cell-based
# Description: as §1
# [4] = test system: Staphylococcus aureus ATCC43300; type: cell-based; settings: ATCC43300
# Description: as §1
# Escherichia coli CVCC195 = type: cell-based; settings: CVCC195
# Description: as §1
# [5] = test system: Pseudomonas aeruginosa CICC10419; type: cell-based; settings: CICC10419
# Description: as §1
# [6] = test system: Enterococcus faecium CMCC1.2136; type: cell-based; settings: CMCC1.2136
# Description: as §1
# [7] = test system: Salmonella typhimurium ATCC14028; type: cell-based; settings: ATCC14028
# Description: as §1
# E. coli CVCC1515 = type: cell-based, Escherichia coli; settings: CVCC1515
# Description: as §1
# S. choleraesuis CVCC503 = type: cell-based; settings: CVCC503
# Description: as §1
Compound,MIC (P. aeruginosa CICC21630) [µg/mL],MIC [1] [µg/mL],MIC (S. enteritidis CVCC3377) [µg/mL],MIC (S. aureus ATCC25923) [µg/mL],MIC [2] [µg/mL],MIC (S. pullorum CVCC1789) [µg/mL],MIC (S. pullorum CVCC1802) [µg/mL],MIC [3] [µg/mL],MIC (S. suis CVCC606) [µg/mL],MIC [4] [µg/mL],MIC (Escherichia coli CVCC195) [µg/mL],MIC [5] [µg/mL],MIC [6] [µg/mL],MIC [7] [µg/mL],MIC (E. coli CVCC1515) [µg/mL],MIC (S. choleraesuis CVCC503) [µg/mL]
"CC(C)[C@@H]1NC(=O)CNC(=O)[C@H](CC(N)=O)NC(=O)[C@H](CCCNC(=N)N)NC(=O)[C@H](Cc2ccc(O)cc2)NC(=O)[C@H](C(C)C)NC(=O)[C@@H]2CSSC[C@H](NC(=O)[C@H](C(C)C)NC(=O)[C@H](CCCNC(=N)N)NC1=O)C(=O)N[C@@H](Cc1c[nH]cn1)C(=O)N[C@@H](CCCNC(=N)N)C(=O)N[C@@H](CCCNC(=N)N)C(=O)N[C@H](C(=O)N[C@@H](CC(N)=O)C(=O)O)CSSC[C@H](NC(=O)[C@H](Cc1ccccc1)NC(=O)CN)C(=O)N[C@@H](CCCCN)C(=O)N[C@@H](C)C(=O)N[C@@H](C(C)C)C(=O)N2 [N3] (H-GFCKAVCVYRNGVRVCHRRCN-OH; disulfide 3-20, 7-16)",16,>16,0.5,0.25,8,2,1,2,16,>16,1,>16,8,4,1,
CC(C)[C@@H]1NC(=O)CNC(=O)[C@H](CC(N)=O)NC(=O)[C@H](CCCNC(=N)N)NC(=O)[C@H](Cc2ccc(O)cc2)NC(=O)[C@H](C(C)C)NC(=O)[C@H](C)NC(=O)[C@H](C(C)C)NC(=O)[C@H](CC(N)=O)NC(=O)[C@H](Cc2c[nH]c3ccccc23)NC(=O)[C@@H](NC(=O)[C@H](Cc2ccccc2)NC(=O)CN)CSSC[C@@H](C(=O)N[C@@H](CC(N)=O)C(=O)O)NC(=O)[C@H](CCCNC(=N)N)NC(=O)[C@H](CCCNC(=N)N)NC(=O)[C@H](Cc2c[nH]cn2)NC(=O)[C@H](C)NC(=O)[C@H](C(C)C)NC(=O)[C@H](CCCNC(=N)N)NC1=O [N7] (H-GFCWNVAVYRNGVRVAHRRCN-OH; disulfide 3-20),>64,>16,0.5,0.5,2,4,4,2,8,>64,2,>64,2,8,2,16
"CC(C)[C@@H]1NC(=O)CNC(=O)[C@H](CC(N)=O)NC(=O)[C@H](CCCNC(=N)N)NC(=O)[C@H](Cc2ccc(O)cc2)NC(=O)[C@H](C(C)C)NC(=O)[C@@H]2CSSC[C@H](NC(=O)[C@H](C(C)C)NC(=O)[C@H](CCCNC(=N)N)NC1=O)C(=O)N[C@@H](Cc1c[nH]cn1)C(=O)N[C@@H](CCCNC(=N)N)C(=O)N[C@@H](CCCNC(=N)N)C(=O)N[C@H](C(=O)N[C@@H](CC(N)=O)C(=O)O)CSSC[C@H](NC(=O)[C@H](Cc1ccccc1)NC(=O)CNC(=O)[C@@H](N)Cc1c[nH]c3ccccc13)C(=O)N[C@@H](Cc1c[nH]c3ccccc13)C(=O)N[C@@H](CC(N)=O)C(=O)N[C@@H](C(C)C)C(=O)N2 [N4] (H-WGFCWNVCVYRNGVRVCHRRCN-OH; disulfide 4-21, 8-17)",4,,0.25,1,,1,2,1,,8,1,,,2,1,
